Test results: PubChem BioAssay AID2060905 (Molecular Pharmacology Branch, DTP, NCI, 2025)
pIC50: −log10 of the molar value.

System: 282377-053-R-J1-PDC complex spheroid viability
Assay: Anticancer human tumor 282377-053-R-J1-PDC patient-derived colon adenocarcinoma cell line growth inhibition [RAS]
Details: for viability, T/C: stronger effect = lower value
Outline: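 Agents were tested in combination matrices in half-log decrements from a top concentration at or near clinical Cmax (10 microM if undetermined). Targets were multi-cell spheroids of tumour lines plus HUVEC and MSC stromal cells.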
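Also: spheroids exposed to agents for seven days before readout.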
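For viability, T/C in this document: luminescence viability as percent of DMSO vehicle control wells.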

`CCc1c2c(nc3ccc(O)cc13)-c1cc3c(c(=O)n1C2)COC(=O)[C@]3(O)CC` + CCn1c(-c2cccnc2C(C)OC)c2c3cc(ccc31)N1CCOC(CC(NC(=O)C(C(C)C)N(C)C(=O)C3(F)CCN(C(=O)C#CC(C)(C)N(C)C)CC3)C(=O)N3CCCC(N3)C(=O)OCC(C)(C)C2)C1 showed a pIC50 (curve of first compound, second compound 0.000949 µM) of under 6.52, a pIC50 (curve of first compound, second compound 0.003 µM) of under 6.52 and a pIC50 (curve of first compound, second compound 0.00949 µM) of under 6.52. It also gave a pIC50 (curve of first compound, second compound 0.03 µM) of under 6.52, a pIC50 (curve of first compound, second compound 0.0949 µM) of under 6.52 and a pIC50 (curve of first compound, second compound 0.3 µM) of 6.74. It also gave a viability, T/C (second compound 0.000949 µM, first compound 0.000949 µM) of 133%, a viability, T/C (second compound 0.000949 µM, first compound 0.003 µM) of 105% and a viability, T/C (second compound 0.000949 µM, first compound 0.00949 µM) of 161%. It also gave a viability, T/C (second compound 0.000949 µM, first compound 0.03 µM) of 108%, a viability, T/C (second compound 0.000949 µM, first compound 0.0949 µM) of 95.5% and a viability, T/C (second compound 0.000949 µM, first compound 0.3 µM) of 90.6%. The viability, T/C (second compound 0.003 µM, first compound 0.000949 µM) was 111%, the viability, T/C (second compound 0.003 µM, first compound 0.003 µM) was 125% and the viability, T/C (second compound 0.003 µM, first compound 0.00949 µM) was 131%. It also gave a viability, T/C (second compound 0.003 µM, first compound 0.03 µM) of 99.1%, a viability, T/C (second compound 0.003 µM, first compound 0.0949 µM) of 122% and a viability, T/C (second compound 0.003 µM, first compound 0.3 µM) of 98.8%. The viability, T/C (second compound 0.00949 µM, first compound 0.000949 µM) was 129%, the viability, T/C (second compound 0.00949 µM, first compound 0.003 µM) was 110% and the viability, T/C (second compound 0.00949 µM, first compound 0.00949 µM) was 142%. The viability, T/C (second compound 0.00949 µM, first compound 0.03 µM) was 115%, the viability, T/C (second compound 0.00949 µM, first compound 0.0949 µM) was 98% and the viability, T/C (second compound 0.00949 µM, first compound 0.3 µM) was 85.1%. It also gave a viability, T/C (second compound 0.03 µM, first compound 0.000949 µM) of 95%, a viability, T/C (second compound 0.03 µM, first compound 0.003 µM) of 115% and a viability, T/C (second compound 0.03 µM, first compound 0.00949 µM) of 146%. It also gave a viability, T/C (second compound 0.03 µM, first compound 0.03 µM) of 139%, a viability, T/C (second compound 0.03 µM, first compound 0.0949 µM) of 110% and a viability, T/C (second compound 0.03 µM, first compound 0.3 µM) of 94.4%. The viability, T/C (second compound 0.0949 µM, first compound 0.000949 µM) was 119%, the viability, T/C (second compound 0.0949 µM, first compound 0.003 µM) was 143% and the viability, T/C (second compound 0.0949 µM, first compound 0.00949 µM) was 163%. For the same compound, the viability, T/C (second compound 0.0949 µM, first compound 0.03 µM) was 136%, the viability, T/C (second compound 0.0949 µM, first compound 0.0949 µM) was 110% and the viability, T/C (second compound 0.0949 µM, first compound 0.3 µM) was 82.4%. For the same compound, the viability, T/C (second compound 0.3 µM, first compound 0.000949 µM) was 96.7%, the viability, T/C (second compound 0.3 µM, first compound 0.003 µM) was 135% and the viability, T/C (second compound 0.3 µM, first compound 0.00949 µM) was 149%. For the same compound, the viability, T/C (second compound 0.3 µM, first compound 0.03 µM) was 117%, the viability, T/C (second compound 0.3 µM, first compound 0.0949 µM) was 69.8% and the viability, T/C (second compound 0.3 µM, first compound 0.3 µM) was 35%.
With `CC1(C)CCC(Nc2ncc(C(F)(F)F)c(-c3c[nH]c4c(P(C)(C)=O)c(C#N)ccc34)n2)CN1` (stereo unspecified) the viability, T/C (compound 0.003 µM) was 102% [middle of 4 runs], the viability, T/C (compound 0.0949 µM) was 74.2% [middle of 4 runs] and the viability, T/C (compound 0.3 µM) was 75.7% [middle of 4 runs]. The pIC50 (curve of compound) was under 6.52.
